Measurements published in patent publication US8211935B2, “Heterocyclic derivatives for modulation of calcium channels” (Vertex Pharmaceuticals Incorporated, priority 2004, dated 2012).

These compounds were tested against T1, CaV2.2 (Homo sapiens, UniProt Q00975) (assay: VIPR optical membrane potential assay with electrical stimulation). Conditions: not given.
T1 construct: expressed in transfected cells; host or cells: HEK293
Format: cell-based
Description: Antagonist properties of test compounds were assessed as follows. Cells expressing the CaV of interest were placed into microtiter plates. After an incubation period, the cells were stained with fluorescent dyes sensitive to the transmembrane potential. The test compounds were added to the microtiter plate. The cells were stimulated with electrical means to evoke a CaV dependent membrane potential change from unblocked channels, which was detected and measured with trans-membrane potential-sensitive dyes. Antagonists were detected as a decreased membrane potential response to the stimulus.
VIPR® Optical Membrane Potential Assay Method with Electrical Stimulation
The following is an example of how CaV2.2 inhibition activity is measured using the optical membrane potential method. Other subtypes are performed in an analogous mode in a cell line expressing the CaV of interest.
HEK293 cells stably expressing CaV2.2 are plated into 96-well microtiter plates. After an appropriate incubation period, the cells are stained with the voltage sensitive dyes CC2-DMPE/DiSBAC2(3) as follows.
2×CC2-DMPE=20 μM CC2-DMPE: 10 mM CC2-DMPE is vortexed with an equivalent volume of 10% Pluronic, followed by vortexing in required amount of HBSS containing 10 mM HEPES. Each cell plate will require 5 mL of 2×CC2-DMPE. 50 μL of 2×CC2-DMPE is added to wells containing washed cells, resulting in a 10 μM final staining concentration. The cells are stained for 30 minutes in the dark at RT.
Vortex in required amount of Bath X with beta-cyclodextrin. Each 96 well cell plate will require 5 ml of 2×CC2DMPE. Wash plate with ELx405 with Bath X, leaving a residual volume of 50 μL/well. Add 50 μL of 2×CC2DMPE & DISBAC6(3) to each well. Stain for 30 minutes in the dark at RT.
Allow solution to sit for 10 minutes. Slowly mix in 370 mM BaCl2. This solution can be used to solvate compound plates. Note that compound plates are made at 1.5× drug concentration and not the usual 2×. Wash CC2 stained plate, again, leaving residual volume of 50 pt. Add 100 uL/well of the AY17 solution. Stain for 15 minutes in the dark at RT. Run plate on the optical reader.
The instrument comprises a microtiter plate handler, an optical system for exciting the coumarin dye while simultaneously recording the coumarin and oxonol emissions, a waveform generator, a current- or voltage-controlled amplifier, and a device for inserting electrodes in well. Under integrated computer control, this instrument passes user-programmed electrical stimulus protocols to cells within the wells of the microtiter plate.
Insert or use electrodes into each well to be assayed.
Use the current-controlled amplifier to deliver stimulation wave pulses for 3-5 s. Two seconds of pre-stimulus recording are performed to obtain the un-stimulated intensities. Five seconds of post-stimulation recording are performed to examine the relaxation to the resting state.
Data are analyzed and reported as normalized ratios of background-subtracted emission intensities measured in the 460 nm and 580 nm channels. Background intensities are then subtracted from each assay channel. Background intensities are obtained by measuring the emission intensities during the same time periods from identically treated assay wells in which there are no cells. The response as a function of time is then reported as the ratios obtained using the following formula: […]
The data is further reduced by calculating the initial (Ri) and final (Rf) ratios. These are the average ratio values during part or all of the pre-stimulation period, and during sample points during the stimulation period. The response to the stimulus R=Rf/Ri is then calculated.
Control responses are obtained by performing assays in the presence of a compound with the desired properties (positive control), such as mibefradil, and in the absence of pharmacological agents (negative control). Responses to the negative (N) and positive (P) controls are calculated as above.

T1 sequence (Q00975 whole entry): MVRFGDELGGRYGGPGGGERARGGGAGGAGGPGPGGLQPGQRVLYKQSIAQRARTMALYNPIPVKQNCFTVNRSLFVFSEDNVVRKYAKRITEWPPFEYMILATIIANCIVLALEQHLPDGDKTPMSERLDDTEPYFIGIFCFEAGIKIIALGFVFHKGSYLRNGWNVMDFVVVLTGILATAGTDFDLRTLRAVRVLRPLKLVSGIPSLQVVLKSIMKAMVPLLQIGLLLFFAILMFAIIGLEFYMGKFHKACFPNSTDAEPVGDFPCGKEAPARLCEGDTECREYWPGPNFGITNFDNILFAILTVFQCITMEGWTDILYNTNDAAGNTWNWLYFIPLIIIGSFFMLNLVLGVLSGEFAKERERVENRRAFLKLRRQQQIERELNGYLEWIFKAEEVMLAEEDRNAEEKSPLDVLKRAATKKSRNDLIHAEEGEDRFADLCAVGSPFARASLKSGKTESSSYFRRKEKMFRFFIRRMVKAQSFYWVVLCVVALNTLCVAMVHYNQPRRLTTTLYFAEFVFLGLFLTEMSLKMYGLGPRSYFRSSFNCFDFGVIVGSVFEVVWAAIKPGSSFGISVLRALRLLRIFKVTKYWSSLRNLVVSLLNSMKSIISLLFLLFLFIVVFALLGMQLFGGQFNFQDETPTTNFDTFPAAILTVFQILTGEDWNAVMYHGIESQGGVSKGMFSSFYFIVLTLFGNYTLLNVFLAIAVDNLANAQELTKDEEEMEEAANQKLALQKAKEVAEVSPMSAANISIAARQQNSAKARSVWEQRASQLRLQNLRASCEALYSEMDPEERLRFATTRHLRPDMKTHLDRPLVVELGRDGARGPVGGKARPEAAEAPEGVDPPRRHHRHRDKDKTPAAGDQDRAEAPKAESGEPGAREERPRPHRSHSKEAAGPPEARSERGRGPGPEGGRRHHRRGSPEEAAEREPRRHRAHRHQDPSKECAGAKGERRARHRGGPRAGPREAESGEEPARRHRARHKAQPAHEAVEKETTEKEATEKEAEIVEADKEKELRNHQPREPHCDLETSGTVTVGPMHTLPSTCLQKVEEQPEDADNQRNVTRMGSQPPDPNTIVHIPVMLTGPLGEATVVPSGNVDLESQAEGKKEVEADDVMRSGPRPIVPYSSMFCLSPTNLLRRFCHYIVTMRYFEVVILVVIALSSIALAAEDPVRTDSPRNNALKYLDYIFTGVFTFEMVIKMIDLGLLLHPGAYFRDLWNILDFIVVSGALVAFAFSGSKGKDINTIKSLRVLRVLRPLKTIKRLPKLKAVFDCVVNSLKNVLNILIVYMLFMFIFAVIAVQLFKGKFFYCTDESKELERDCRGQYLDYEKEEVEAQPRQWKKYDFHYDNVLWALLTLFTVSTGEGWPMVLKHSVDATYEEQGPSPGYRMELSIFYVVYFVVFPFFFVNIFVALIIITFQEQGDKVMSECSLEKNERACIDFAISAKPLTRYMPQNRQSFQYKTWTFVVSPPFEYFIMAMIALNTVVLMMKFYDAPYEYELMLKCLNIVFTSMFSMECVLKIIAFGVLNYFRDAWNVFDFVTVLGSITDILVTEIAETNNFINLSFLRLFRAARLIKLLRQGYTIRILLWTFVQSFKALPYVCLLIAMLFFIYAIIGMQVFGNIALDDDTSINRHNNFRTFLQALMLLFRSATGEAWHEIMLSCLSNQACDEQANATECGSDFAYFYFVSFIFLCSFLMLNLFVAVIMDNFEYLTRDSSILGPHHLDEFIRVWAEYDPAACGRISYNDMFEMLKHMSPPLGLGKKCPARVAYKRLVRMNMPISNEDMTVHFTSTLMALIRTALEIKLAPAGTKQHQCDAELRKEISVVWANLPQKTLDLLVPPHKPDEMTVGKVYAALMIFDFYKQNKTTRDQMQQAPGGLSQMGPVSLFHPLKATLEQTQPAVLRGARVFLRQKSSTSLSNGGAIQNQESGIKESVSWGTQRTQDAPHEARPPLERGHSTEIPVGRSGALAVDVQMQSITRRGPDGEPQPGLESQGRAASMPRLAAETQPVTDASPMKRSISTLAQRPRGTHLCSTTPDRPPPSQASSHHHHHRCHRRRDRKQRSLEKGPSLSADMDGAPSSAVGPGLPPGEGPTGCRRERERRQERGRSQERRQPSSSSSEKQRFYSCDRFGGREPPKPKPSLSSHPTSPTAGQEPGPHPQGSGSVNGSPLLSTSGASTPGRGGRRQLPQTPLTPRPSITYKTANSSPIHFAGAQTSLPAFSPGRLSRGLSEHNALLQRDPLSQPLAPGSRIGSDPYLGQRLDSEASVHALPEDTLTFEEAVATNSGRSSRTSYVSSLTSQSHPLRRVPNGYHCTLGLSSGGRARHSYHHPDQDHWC
T1 sequence (P54284 whole entry partner): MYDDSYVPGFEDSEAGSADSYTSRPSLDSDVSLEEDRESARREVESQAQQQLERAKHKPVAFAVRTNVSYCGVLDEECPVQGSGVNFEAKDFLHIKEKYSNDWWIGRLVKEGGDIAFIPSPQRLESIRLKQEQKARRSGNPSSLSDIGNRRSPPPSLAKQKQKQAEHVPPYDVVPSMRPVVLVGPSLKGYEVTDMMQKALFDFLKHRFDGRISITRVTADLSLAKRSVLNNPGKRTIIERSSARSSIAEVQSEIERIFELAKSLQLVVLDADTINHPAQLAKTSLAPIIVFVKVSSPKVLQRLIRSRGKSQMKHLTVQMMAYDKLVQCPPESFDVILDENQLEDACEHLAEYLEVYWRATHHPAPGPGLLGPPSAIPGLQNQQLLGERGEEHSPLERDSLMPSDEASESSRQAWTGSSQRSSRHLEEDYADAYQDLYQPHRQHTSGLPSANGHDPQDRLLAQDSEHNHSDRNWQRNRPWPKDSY
T1 sequence (P54289 25-946 partner limits assumed): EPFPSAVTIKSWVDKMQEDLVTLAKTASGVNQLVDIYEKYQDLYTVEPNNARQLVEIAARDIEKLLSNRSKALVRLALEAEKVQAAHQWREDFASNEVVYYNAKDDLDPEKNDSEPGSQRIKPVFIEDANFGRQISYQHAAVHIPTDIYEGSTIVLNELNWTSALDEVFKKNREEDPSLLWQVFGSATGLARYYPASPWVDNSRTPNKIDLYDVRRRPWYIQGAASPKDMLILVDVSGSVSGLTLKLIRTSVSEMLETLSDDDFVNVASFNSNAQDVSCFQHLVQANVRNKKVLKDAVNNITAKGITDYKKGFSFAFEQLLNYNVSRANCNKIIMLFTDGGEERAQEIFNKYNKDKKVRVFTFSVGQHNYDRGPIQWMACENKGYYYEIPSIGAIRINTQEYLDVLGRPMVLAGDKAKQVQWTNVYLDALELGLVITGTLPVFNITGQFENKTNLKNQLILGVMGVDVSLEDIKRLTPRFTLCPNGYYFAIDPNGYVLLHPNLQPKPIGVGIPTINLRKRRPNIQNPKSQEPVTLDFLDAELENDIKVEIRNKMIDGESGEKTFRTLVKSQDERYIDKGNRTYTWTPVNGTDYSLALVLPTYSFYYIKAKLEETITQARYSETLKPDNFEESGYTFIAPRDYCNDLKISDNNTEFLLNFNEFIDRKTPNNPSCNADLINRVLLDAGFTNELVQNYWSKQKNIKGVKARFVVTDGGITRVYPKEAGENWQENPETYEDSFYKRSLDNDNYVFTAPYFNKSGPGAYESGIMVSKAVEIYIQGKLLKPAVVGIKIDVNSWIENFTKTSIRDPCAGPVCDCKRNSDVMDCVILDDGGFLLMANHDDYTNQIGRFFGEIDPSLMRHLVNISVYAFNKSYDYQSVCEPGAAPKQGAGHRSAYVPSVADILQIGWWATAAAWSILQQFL
T1 sequence (P54289 947-1103 partner limits assumed): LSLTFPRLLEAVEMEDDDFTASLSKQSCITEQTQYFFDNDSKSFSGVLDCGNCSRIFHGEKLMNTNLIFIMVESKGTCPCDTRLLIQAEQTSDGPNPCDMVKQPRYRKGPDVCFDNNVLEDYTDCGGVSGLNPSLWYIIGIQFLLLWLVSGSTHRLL

`Cc1c(C(=O)N2CCC3(CC2)OCCO3)oc2ccc(S(=O)(=O)N3CCC(C)CC3)cc12` [compound 287] and `CCN(CC)S(=O)(=O)c1ccc2oc(C(=O)N3CCC4(CC3)OCCO4)c(C)c2c1` [compound 356] cannot be ordered by IC50: 5 to 20 µM for the first, under 20 µM for the second.

With `CC1CC(C)CN(S(=O)(=O)c2ccc3oc(C(=O)N4CCC5(CC4)OCCO5)cc3c2)C1` (centres unmarked) [compound 156] the IC50 was under 5 µM.

Same assay, conditions: Table 3, biological assay data; read-out: IC50

Compared with `Cc1c(C(=O)NCCC2CCOCC2)[nH]c2ccc(S(=O)(=O)N3CCC(C)CC3)cc12` [compound 27], `CC1CCN(S(=O)(=O)c2ccc3[nH]c(C(=O)NCC4CCOCC4)cc3c2)CC1` [compound 345] is lower in IC50: 5 to 20 µM for the first, under 5 µM for the second.

`Cc1c(C(=O)N2CCCC2)oc2ccc(S(=O)(=O)N3CCOCC3)cc12` [compound 26] and `Cc1c(C(=O)N2CCCCC2)oc2ccc(S(=O)(=O)N3CCOCC3)cc12` [compound 65] cannot be ordered by IC50: under 20 µM for the first, under 20 µM for the second.

`CC1CCN(S(=O)(=O)c2ccc3oc(C(=O)N4CC(C)CC(C)C4)cc3c2)CC1` (centres unmarked) [compound 293] and `CC1CCN(C(=O)c2cc3cc(S(=O)(=O)N4CC(C)CC(C)C4)ccc3o2)CC1` (centres unmarked) [compound 339] cannot be ordered by IC50: under 5 µM for the first, under 5 µM for the second.

`O=C(c1cc2cc(S(=O)(=O)N3CCCCCC3)ccc2[nH]1)N1CCCCCC1` [compound 358] and `O=C(c1cc2cc(S(=O)(=O)N3CCCCCC3)ccc2o1)N1CCCCC1` [compound 96] fall in the same range of IC50: 5 to 20 µM for the first, 5 to 20 µM for the second.

First: CC1CC(C)CN(S(=O)(=O)c2ccc3[nH]c(C(=O)N4CCCC4)cc3c2)C1 (centres unmarked) [compound 143]
Second: CC1CC(C)CN(S(=O)(=O)c2ccc3[nH]c(C(=O)N4CCCCC4)cc3c2)C1 (centres unmarked) [compound 389]
The IC50 of the first is higher: 5 to 20 µM for the first, under 5 µM for the second. The second is the more potent here.

`CC1CC(C)CN(S(=O)(=O)c2ccc3oc(C(=O)N(C)Cc4ccccc4)cc3c2)C1` (centres unmarked) [compound 430] and `CC1CC(C)CN(S(=O)(=O)c2ccc3oc(C(=O)NCCCc4ccccc4)cc3c2)C1` (centres unmarked) [compound 53] cannot be ordered by IC50: under 5 µM for the first, under 5 µM for the second.

`O=C(NC1CC1)c1cc2cc(S(=O)(=O)N3CCCCCC3)ccc2n1S(=O)(=O)c1ccccc1` [compound 421] and `O=C(NCCCc1ccccc1)c1cc2cc(S(=O)(=O)N3CCCCCC3)ccc2[nH]1` [compound 5] cannot be ordered by IC50: under 5 µM for the first, under 5 µM for the second.

`Cc1c(C(=O)N2CCCCC2C)oc2ccc(S(=O)(=O)N3CCOCC3)cc12` (centres unmarked) [compound 14] and `Cc1c(C(=O)N2CCCCC2C)oc2ccc(S(=O)(=O)N3CCCCC3)cc12` (centres unmarked) [compound 59] cannot be ordered by IC50: under 20 µM for the first, 5 to 20 µM for the second.

`CCCN(c1ccc2[nH]c(C(=O)NC3CC3)cc2c1)S(=O)(=O)c1ccccc1` [compound 181] and `O=C(NC1CC1)c1cc2cc(N(C3CCCCC3)S(=O)(=O)c3ccccc3)ccc2[nH]1` [compound 270] fall in the same range of IC50: 5 to 20 µM for the first, 5 to 20 µM for the second.

First: CCN(CC)C(=O)c1[nH]c2ccc(S(=O)(=O)N3CC(C)CC(C)C3)cc2c1C (centres unmarked) [compound 7]
Second: Cc1c(C(=O)N2CCN(C)CC2)[nH]c2ccc(S(=O)(=O)N3CC(C)CC(C)C3)cc12 (centres unmarked) [compound 160]
The IC50 of the first is lower: under 5 µM for the first, 5 to 20 µM for the second.

`Cc1c(C(=O)N2CCOCC2)oc2ccc(S(=O)(=O)N3CCCCC3)cc12` [compound 372] and `Cc1c(C(=O)N2CCCC(C)C2)oc2ccc(S(=O)(=O)N3CCOCC3)cc12` (centres unmarked) [compound 195] cannot be ordered by IC50: under 20 µM for the first, under 20 µM for the second.

Compared with `CC1CCN(S(=O)(=O)c2ccc3[nH]c(CN4CCN(C)CC4)cc3c2)CC1` [compound 121], `CNC(=O)c1cc2cc(S(=O)(=O)N3CCC(C)CC3)ccc2[nH]1` [compound 192] is lower in IC50: 5 to 20 µM for the first, under 5 µM for the second.

`CC1CC(C)CN(S(=O)(=O)c2ccc3oc(C(=O)N4CCCCCC4)cc3c2)C1` (centres unmarked) [compound 240] and `CC1CCN(S(=O)(=O)c2ccc3oc(C(=O)N4CCCCC4C)cc3c2)CC1` (centres unmarked) [compound 208] cannot be ordered by IC50: under 5 µM for the first, under 5 µM for the second.

`Cc1c(C(=O)N(C(C)C)C(C)C)oc2ccc(S(=O)(=O)N3CC(C)CC(C)C3)cc12` (centres unmarked) [compound 284] and `Cc1c(C(=O)NCc2ccccc2)oc2ccc(S(=O)(=O)N3CC(C)CC(C)C3)cc12` (centres unmarked) [compound 441] cannot be ordered by IC50: under 5 µM for the first, under 5 µM for the second.

`Cc1c(C(=O)NCCC2=CCCCC2)oc2ccc(S(=O)(=O)N3CCC4(CC3)OCCO4)cc12` [compound 320] and `Cc1c(C(=O)N2CCC(C)CC2)oc2ccc(S(=O)(=O)N3CCC4(CC3)OCCO4)cc12` [compound 4] fall in the same range of IC50: 5 to 20 µM for the first, 5 to 20 µM for the second.

Compared with `Cc1ccc(S(=O)(=O)Nc2ccc3[nH]c(C(=O)NC4CC4)cc3c2)cc1` [compound 151], `CC1CC(C)CN(S(=O)(=O)c2ccc3[nH]c(C(=O)NC4CCCC4)cc3c2)C1` (centres unmarked) [compound 366] is lower in IC50: 5 to 20 µM for the first, under 5 µM for the second.

`Cc1c(C(=O)NC2CCCC2)[nH]c2ccc(S(=O)(=O)N3CCCCCC3)cc12` [compound 258] and `Cc1c(C(=O)N2CCCCC2)[nH]c2ccc(S(=O)(=O)N3CCCCCC3)cc12` [compound 69] fall in the same range of IC50: 5 to 20 µM for the first, 5 to 20 µM for the second.

`Cc1c(C(=O)NC(C)C)oc2ccc(S(=O)(=O)N3CCCC(F)(F)C3)cc12` [compound 264] and `CNC(=O)c1oc2ccc(S(=O)(=O)N3CCOCC3)cc2c1C` [compound 22] cannot be ordered by IC50: under 20 µM for the first, under 20 µM for the second.

Compared with `Cc1c(C(=O)N2CCCC2)oc2ccc(S(=O)(=O)N3CCC(C)CC3)cc12` [compound 12], `Cc1c(C(=O)N2CCCCC2)[nH]c2ccc(S(=O)(=O)N3CCC(C)CC3)cc12` [compound 74] is lower in IC50: 5 to 20 µM for the first, under 5 µM for the second. The second is the more potent here.

`CCN(CC)S(=O)(=O)c1ccc2oc(C(=O)N3CCCCC3)c(C)c2c1` [compound 367] and `CCN(CC)S(=O)(=O)c1ccc2oc(C(=O)NC3CCCCC3)c(C)c2c1` [compound 370] cannot be ordered by IC50: under 20 µM for the first, 5 to 20 µM for the second.

`CCN(CC)S(=O)(=O)c1ccc2oc(C(=O)NCC3CCCO3)c(C)c2c1` (centres unmarked) [compound 179] and `Cc1c(C(=O)NCC2CCCO2)oc2ccc(S(=O)(=O)N3CCOCC3)cc12` (centres unmarked) [compound 149] cannot be ordered by IC50: under 20 µM for the first, under 20 µM for the second.

`CCCCN(C)C(=O)c1cc2cc(S(=O)(=O)N3CC(C)CC(C)C3)ccc2o1` (centres unmarked) [compound 229] and `Cc1c(C(=O)NCCc2ccccc2)oc2ccc(S(=O)(=O)N3CC(C)CC(C)C3)cc12` (centres unmarked) [compound 393] cannot be ordered by IC50: under 5 µM for the first, under 5 µM for the second.

`CCOC(=O)N1CCN(C(=O)c2oc3ccc(S(=O)(=O)N4CCCC(C)C4)cc3c2C)CC1` (centres unmarked) [compound 403] and `CCOC(=O)C1CCN(C(=O)c2oc3ccc(S(=O)(=O)N4CC(C)CC(C)C4)cc3c2C)CC1` (centres unmarked) [compound 336] cannot be ordered by IC50: under 5 µM for the first, under 5 µM for the second.

`CC(C)NC(=O)c1cc2cc(S(=O)(=O)N3CCCCCC3)ccc2o1` [compound 218] and `O=C(NCC1CCOCC1)c1cc2cc(S(=O)(=O)N3CCCCCC3)ccc2o1` [compound 363] fall in the same range of IC50: 5 to 20 µM for the first, 5 to 20 µM for the second.

`Cc1c(C(=O)NC2CC2)oc2ccc(S(=O)(=O)Nc3ccccn3)cc12` [compound 50] and `Cc1c(C(=O)NC2CC2)oc2ccc(S(=O)(=O)Nc3ncns3)cc12` [compound 316] cannot be ordered by IC50: under 20 µM for the first, under 20 µM for the second.

`CC1CCN(S(=O)(=O)c2ccc3[nH]c(C(=O)NC(C)C)cc3c2)CC1` [compound 142] and `COc1ccc(CNC(=O)c2oc3ccc(S(=O)(=O)N4CCC(C)CC4)cc3c2C)cc1` [compound 282] cannot be ordered by IC50: under 5 µM for the first, under 5 µM for the second.

`Cc1c(C(=O)N(CCN(C)C)Cc2ccccc2)oc2ccc(S(=O)(=O)N3CCC(C)CC3)cc12` [compound 396] and `Cc1c(C(=O)N(C)Cc2ccccc2)oc2ccc(S(=O)(=O)N3CCCCC3)cc12` [compound 93] cannot be ordered by IC50: under 5 µM for the first, under 5 µM for the second.

First: Cc1c(C(=O)NC(C)C2=CCCCC2)oc2ccc(S(=O)(=O)N3CCCCC3)cc12 (centres unmarked) [compound 57]
Second: Cc1c(C(=O)NC2CCCC2)oc2ccc(S(=O)(=O)N3CCCC(C)C3)cc12 (centres unmarked) [compound 177]
The IC50 of the first is higher: 5 to 20 µM for the first, under 5 µM for the second. The second is the more potent here.

Compared with `CC1CC(C)CN(S(=O)(=O)c2ccc3[nH]c(C(=O)NCCCc4ccccc4)cc3c2)C1` (centres unmarked) [compound 323], `COc1ccccc1CNC(=O)c1oc2ccc(S(=O)(=O)N3CCCC3)cc2c1C` [compound 375] is higher in IC50: under 5 µM for the first, 5 to 20 µM for the second.

Compound `Cc1c(C(=O)N2CC(C)OC(C)C2)oc2ccc(S(=O)(=O)N3CCC(C)CC3)cc12` (centres unmarked) [compound 449] has an IC50 of 5 to 20 µM.
